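Tested at 5 concentrations; 48 h exposure; 96-well plates; endpoints linearly interpolated, else capped at highest concentration. GI50: concentration for 50% inhibition of growth. TGI is the concentration that stops growth completely.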
Legend:
Assay in all cases: NCI anticancer screen, dose series, 48 h
NCI-H460 lung = test system: NCI-H460 lung
SK-MEL-28 melanoma = test system: SK-MEL-28 melanoma
PC-3 prostate = test system: PC-3 prostate
ACHN renal = test system: ACHN renal
HOP-62 NSCLC = test system: HOP-62 NSCLC
A498 renal = test system: A498 renal
HT29 colon = test system: HT29 colon
MCF7 breast = test system: MCF7 breast
EKVX NSCLC = test system: EKVX NSCLC
SK-MEL-2 melanoma = test system: SK-MEL-2 melanoma
KM12 colon = test system: KM12 colon
SK-MEL-5 melanoma = test system: SK-MEL-5 melanoma
SR leukemia = test system: SR leukemia
TK-10 renal = test system: TK-10 renal
LOX IMVI melanoma = test system: LOX IMVI melanoma
SW-620 colon = test system: SW-620 colon
SNB-19 CNS = test system: SNB-19 CNS
MDA-MB-231 breast = test system: MDA-MB-231 breast
MDA-MB-435 = test system: MDA-MB-435
SF-539 CNS = test system: SF-539 CNS
SF-268 CNS = test system: SF-268 CNS
HL-60(TB) leukemia = test system: HL-60(TB) leukemia
UACC-257 melanoma = test system: UACC-257 melanoma
SN12C renal = test system: SN12C renal
MOLT-4 leukemia = test system: MOLT-4 leukemia
T-47D breast = test system: T-47D breast
HS 578T breast = test system: HS 578T breast
NCI-H226 lung = test system: NCI-H226 lung
RXF 393 renal = test system: RXF 393 renal
HOP-92 NSCLC = test system: HOP-92 NSCLC
HCT-116 colon = test system: HCT-116 colon
A549 NSCLC = test system: A549 NSCLC
BT-549 breast = test system: BT-549 breast
NCI-H522 lung = test system: NCI-H522 lung
OVCAR-5 ovarian = test system: OVCAR-5 ovarian
IGROV1 ovarian = test system: IGROV1 ovarian
SK-OV-3 ovarian = test system: SK-OV-3 ovarian
OVCAR-4 ovarian = test system: OVCAR-4 ovarian
OVCAR-3 ovarian = test system: OVCAR-3 ovarian
M14 melanoma = test system: M14 melanoma
CCRF-CEM leukemia = test system: CCRF-CEM leukemia
DU-145 prostate = test system: DU-145 prostate
NCI-H23 lung = test system: NCI-H23 lung
NCI/ADR-RES ovarian = test system: NCI/ADR-RES ovarian
OVCAR-8 ovarian = test system: OVCAR-8 ovarian
U251 CNS = test system: U251 CNS
786-0 renal = test system: 786-0 renal
UO-31 renal = test system: UO-31 renal

## COc1cc(-c2nn(-c3ccc(NC(=O)NCCNS(=O)(=O)c4ccc(F)cc4)cc3)cc2-c2ccncc2)ccc1Cl
NCI-H460 lung
  GI50: 0.387 µM
  TGI: 1.51 µM
SK-MEL-28 melanoma
  GI50: 1.42 µM
  TGI: 9.29 µM
PC-3 prostate
  GI50: 0.453 µM
  TGI: 4.75 µM
ACHN renal
  GI50: 2.21 µM
  TGI: 8.06 µM
HOP-62 NSCLC
  GI50: 0.544 µM
  TGI: 51 µM
A498 renal
  GI50: 0.389 µM
  TGI: 2.18 µM
HT29 colon
  GI50: 0.318 µM
  TGI: 1.23 µM
MCF7 breast
  GI50: 0.3 µM
  TGI: > 100 µM
EKVX NSCLC
  GI50: 1.32 µM
  TGI: > 100 µM
SK-MEL-2 melanoma
  GI50: 0.553 µM
  TGI: 2.62 µM
KM12 colon
  GI50: 0.39 µM
  TGI: 2.03 µM
SK-MEL-5 melanoma
  GI50: 0.453 µM
  TGI: 1.68 µM
SR leukemia
  GI50: 0.427 µM
  TGI: 3.01 µM
TK-10 renal
  GI50: 1.89 µM
  TGI: 6.33 µM
LOX IMVI melanoma
  GI50: 0.556 µM
  TGI: 2.88 µM
SW-620 colon
  GI50: 0.529 µM
  TGI: 12.7 µM
SNB-19 CNS
  GI50: 0.857 µM
  TGI: > 100 µM
MDA-MB-231 breast
  GI50: 0.65 µM
  TGI: 3.38 µM
MDA-MB-435
  GI50: 0.17 µM
  TGI: 0.418 µM
SF-539 CNS
  GI50: 0.281 µM
  TGI: 0.965 µM
SF-268 CNS
  GI50: 0.629 µM
  TGI: 5 µM
HL-60(TB) leukemia
  GI50: 0.391 µM
  TGI: 2.26 µM
UACC-257 melanoma
  GI50: 1.57 µM
  TGI: 4.73 µM
SN12C renal
  GI50: 0.733 µM
  TGI: 8.44 µM
MOLT-4 leukemia
  GI50: 0.583 µM
  TGI: 3.99 µM
T-47D breast
  GI50: 0.733 µM
  TGI: 5.56 µM
HS 578T breast
  GI50: 0.453 µM
  TGI: 5.98 µM
NCI-H226 lung
  GI50: 1.38 µM
  TGI: 7.3 µM
RXF 393 renal
  GI50: 0.247 µM
  TGI: 0.888 µM
HOP-92 NSCLC
  GI50: 1.45 µM
  TGI: 5.91 µM
HCT-116 colon
  GI50: 0.339 µM
  TGI: 1.77 µM
A549 NSCLC
  GI50: 1.92 µM
  TGI: 23.1 µM
BT-549 breast
  GI50: 0.782 µM
  TGI: 4.95 µM
NCI-H522 lung
  GI50: 0.295 µM
  TGI: 2.7 µM
OVCAR-5 ovarian
  GI50: 1.21 µM
  TGI: > 100 µM
IGROV1 ovarian
  GI50: 0.795 µM
  TGI: 8.4 µM
SK-OV-3 ovarian
  GI50: 0.705 µM
  TGI: 8.15 µM
OVCAR-4 ovarian
  GI50: 1.04 µM
  TGI: > 100 µM
OVCAR-3 ovarian
  GI50: 0.246 µM
  TGI: 0.665 µM
M14 melanoma
  GI50: 0.324 µM
  TGI: 1.53 µM
CCRF-CEM leukemia
  GI50: 0.459 µM
  TGI: > 100 µM
DU-145 prostate
  GI50: 0.387 µM
  TGI: 10.8 µM
NCI-H23 lung
  GI50: 0.632 µM
  TGI: 5.18 µM
NCI/ADR-RES ovarian
  GI50: > 100 µM
  TGI: > 100 µM
OVCAR-8 ovarian
  GI50: 0.588 µM
  TGI: 5.38 µM
U251 CNS
  GI50: 0.409 µM
  TGI: 2.49 µM
786-0 renal
  GI50: 0.901 µM
  TGI: 6.3 µM
UO-31 renal
  GI50: 2.38 µM
  TGI: > 100 µM

Source: PubChem BioAssay (NCI)
